Test results from ChEMBL document CHEMBL2163233, “3-Oxoisoindoline-1-carboxamides: potent, state-dependent blockers of voltage-gated sodium channel Na(V)1.7 with efficacy in rat pain models” (J Med Chem, 2012).
pIC50: −log10 of the molar value. Values after ≈ are worked out from the molar mass of the structure shown.

Tests used:
[1] = in vitro; details: rat, microsomes, CLH
[2] = in vitro; details: human, microsomes, CLH
[3] = physchem
[4] = in vitro; details: Sprague-Dawley, rat, plasma
[5] = in vivo; details: Sprague-Dawley, rat, po, 10 umol/kg
[6] = in vivo; details: Sprague-Dawley, rat, iv, 3 umol/kg
[7] = in vitro; details: human, Caco-2
[8] = in vivo; details: Sprague-Dawley, rat, po, 10 umol/kg; remark: listed apart in the source
[9] = in vivo; details: Sprague-Dawley, rat, iv, 3 umol/kg; remark: listed apart in the source
[10] = in vivo; details: Sprague-Dawley, rat, iv, 3 umol/kg; remark: listed apart in the source
[11] = in vivo; details: Sprague-Dawley, rat, po, 10 umol/kg; remark: listed apart in the source
[12] = in vivo; details: Sprague-Dawley, rat, po, 10 umol/kg; remark: listed apart in the source
[13] = in vivo; details: Sprague-Dawley, rat, iv, 3 umol/kg; remark: listed apart in the source
[14] = in vivo; details: Sprague-Dawley, rat, po, 10 umol/kg; remark: listed apart in the source
[15] = cells; details: Homo sapiens, HEK293

microsomal CLint [1]	microsomal CLint [2]	solubility at 4 h [3]	SMILES	also measured
< 10 µL/min/mg	< 10 µL/min/mg	11 µM (≈ 4.91 µg/mL)	O=C(NCc1ccc(OC(F)(F)F)cc1)C1c2ccccc2C(=O)N1CCC(F)(F)F (centres undefined)	–
57 µL/min/mg	> 500 µL/min/mg	–	CC1(C(=O)NCc2ccc(OC(F)(F)F)cc2)c2ccccc2C(=O)N1CCc1ccccn1 (racemic)	–
28 µL/min/mg	180 µL/min/mg	61 µM (≈ 28.9 µg/mL)	O=C(NCc1cccc(OC(F)(F)F)c1)C1c2ccccc2C(=O)N1CCc1ncc(F)cn1 (centres undefined)	fraction unbound [4]: 0.18; AUC [5]: 0.4 µM·h; AUC [6]: 2.1 µM·h; Papp [7]: 50 ×10⁻⁶ cm/s; Cmax [8]: 90 nM; half-life [9]: 24 min; Vd [10]: 0.7 L/kg; half-life [11]: 486 min; Tmax [12]: 24 min; clearance [13]: 29 mL/min/kg; bioavailability [14]: 6%
47 µL/min/mg	310 µL/min/mg	6 µM (≈ 2.7 µg/mL)	O=C(NCc1cccc(Br)c1)C1c2ccccc2C(=O)N1CCc1ccccn1 (centres undefined)	–
59 µL/min/mg	190 µL/min/mg	1 µM (≈ 0.469 µg/mL)	Cc1cccc2c1C(C(=O)NCc1ccc(OC(F)(F)F)cc1)N(CCc1ccccn1)C2=O (centres undefined)	–
58 µL/min/mg	180 µL/min/mg	7 µM (≈ 3.08 µg/mL)	O=C(NCc1ccc(C(F)(F)F)cc1)C1c2ccccc2C(=O)N1CCc1ccccn1 (centres undefined)	–
31 µL/min/mg	120 µL/min/mg	57 µM (≈ 25.7 µg/mL)	O=C(NCc1ccc(Br)cc1)C1c2ccccc2C(=O)N1CCc1ccccn1 (centres undefined)	–
10 µL/min/mg	150 µL/min/mg	17 µM (≈ 8.05 µg/mL)	O=C(NCc1ccc(OC(F)(F)F)cc1)C1c2c(F)cccc2C(=O)N1CCc1ccccn1 (centres undefined)	–
< 10 µL/min/mg	< 10 µL/min/mg	14 µM (≈ 6.67 µg/mL)	O=C(NCc1ccc(F)c(C(F)(F)F)c1)C1c2ccccc2C(=O)N1CCc1ncc(F)cn1 (centres undefined)	fraction unbound [4]: 0.13; AUC [5]: 0.2 µM·h; AUC [6]: 1.6 µM·h; Papp [7]: 39 ×10⁻⁶ cm/s; Cmax [8]: 100 nM; half-life [9]: 24 min; Vd [10]: 0.9 L/kg; half-life [11]: 72 min; pIC50 [15]: 4.48; Tmax [12]: 18 min; clearance [13]: 32 mL/min/kg; bioavailability [14]: 4%
–	–	34 µM (≈ 13.1 µg/mL)	Cc1ccc(NC(=O)C2c3ccccc3C(=O)N2CCc2ccccn2)cc1C (centres undefined)	–
49 µL/min/mg	204 µL/min/mg	34 µM (≈ 16.4 µg/mL)	CC(NC(=O)C1c2ccccc2C(=O)N1CCc1ccccn1)c1ccc(OCC(F)(F)F)cc1 (centres undefined)	–
16 µL/min/mg	11 µL/min/mg	45 µM (≈ 18.2 µg/mL)	N#CCCN1C(=O)c2ccccc2C1C(=O)NCc1ccc(OC(F)(F)F)cc1 (centres undefined)	–
16 µL/min/mg	170 µL/min/mg	26 µM (≈ 12.3 µg/mL)	O=C(NCc1ccc(OC(F)(F)F)cc1)C1c2cccc(F)c2C(=O)N1CCc1ccccn1 (centres undefined)	–
10 µL/min/mg	59 µL/min/mg	15 µM (≈ 7.07 µg/mL)	O=C(NCc1ccc(OC(F)(F)F)cc1)C1c2cccc(O)c2C(=O)N1CCc1ccccn1 (centres undefined)	–
23 µL/min/mg	26 µL/min/mg	< 1 µM	O=C(NCc1ccc(OC(F)(F)F)cc1)C1c2c(O)cccc2C(=O)N1CCc1ccccn1 (centres undefined)	–
86 µL/min/mg	370 µL/min/mg	19 µM (≈ 8.65 µg/mL)	O=C(NCc1cccc(OC(F)(F)F)c1)C1c2ccccc2C(=O)N1CCc1ccccn1 (centres undefined)	–
110 µL/min/mg	220 µL/min/mg	27 µM (≈ 13.3 µg/mL)	O=C(NCc1ccc(F)c(OC(F)(F)F)c1)C1c2ccccc2C(=O)N1CCc1ncc(F)cn1 (centres undefined)	–
11 µL/min/mg	< 10 µL/min/mg	200 µM (≈ 91.5 µg/mL)	N#C[C@H]1CC[C@H](N2C(=O)c3ccccc3C2C(=O)NCc2ccc(OC(F)(F)F)cc2)CC1 (some centres undefined)	–
< 10 µL/min/mg	40 µL/min/mg	88 µM (≈ 41.4 µg/mL)	O=C(NCc1ccc(OCC(F)(F)F)nc1)C1c2ccccc2C(=O)N1CCc1ccccn1 (centres undefined)	–
–	–	360 µM (≈ 145 µg/mL)	COc1ccc(CNC(=O)C2c3ccccc3C(=O)N2CCc2ccccn2)cc1 (centres undefined)	–
< 10 µL/min/mg	33 µL/min/mg	310 µM (≈ 141 µg/mL)	O=C(NCc1ccc(OC(F)(F)F)cc1)C1c2ccccc2C(=O)N1CCc1ncccn1 (centres undefined)	–
20 µL/min/mg	300 µL/min/mg	280 µM (≈ 126 µg/mL)	O=C(NCc1ccccc1Br)C1c2ccccc2C(=O)N1CCc1ccccn1 (centres undefined)	–
< 10 µL/min/mg	43 µL/min/mg	30 µM (≈ 15.2 µg/mL)	CC(C)(C)OC(=O)N1CC(N2C(=O)c3ccccc3C2C(=O)NCc2ccc(OC(F)(F)F)cc2)C1 (centres undefined)	–
28 µL/min/mg	100 µL/min/mg	69 µM (≈ 31.4 µg/mL)	O=C(NCc1ccc(OC(F)(F)F)cc1)C1c2ccccc2C(=O)N1CCc1cccnc1 (centres undefined)	–

microsomal CLint [1]	microsomal CLint [2]	solubility at 4 h [3]	SMILES	also measured
20 µL/min/mg	170 µL/min/mg	61 µM (≈ 27.8 µg/mL)	O=C(NCc1ccc(OC(F)(F)F)cc1)C1c2ccccc2C(=O)N1CCc1ccncc1 (centres undefined)	–
< 10 µL/min/mg	40 µL/min/mg	6 µM (≈ 2.9 µg/mL)	CC(C)(CN1C(=O)c2ccccc2C1C(=O)NCc1ccc(OC(F)(F)F)cc1)c1ccccn1 (centres undefined)	–
67 µL/min/mg	340 µL/min/mg	13 µM (≈ 6.29 µg/mL)	CC(C)(Cc1ccccn1)N1C(=O)c2ccccc2C1C(=O)NCc1ccc(OC(F)(F)F)cc1 (centres undefined)	–
< 10 µL/min/mg	82 µL/min/mg	28 µM (≈ 13.1 µg/mL)	CC(Cc1ccccn1)N1C(=O)c2ccccc2C1C(=O)NCc1ccc(OC(F)(F)F)cc1 (centres undefined)	–
38 µL/min/mg	25 µL/min/mg	< 1 µM	O=C(NCc1ccc(OC(F)(F)F)cc1)C1c2ccccc2C(=O)N1CC1CC(F)(F)C1 (centres undefined)	–
< 10 µL/min/mg	50 µL/min/mg	6 µM (≈ 2.91 µg/mL)	COc1cccc2c1C(=O)N(CCc1ccccn1)C2C(=O)NCc1ccc(OC(F)(F)F)cc1 (centres undefined)	–
< 10 µL/min/mg	71 µL/min/mg	20 µM (≈ 9.25 µg/mL)	O=C(NCc1ccc(OC(F)(F)F)cc1)C1c2ccccc2C(=O)N1CCC1CCOCC1 (centres undefined)	–
–	–	–	CCCCNc1ccc(C(=O)OCCN(C)C)cc1 [TETRACAINE]	pIC50 [15]: 4.48
28 µL/min/mg	50 µL/min/mg	28 µM (≈ 12.2 µg/mL)	O=C(NCc1ccc(OC(F)(F)F)cc1)C1c2ccccc2C(=O)N1C[C@@H]1CCCO1 (some centres undefined)	–
< 10 µL/min/mg	15 µL/min/mg	4 µM (≈ 1.76 µg/mL)	O=C(NCc1ccc(OC(F)(F)F)cc1)C1c2ccccc2C(=O)N1C1CC(F)(F)C1 (centres undefined)	–
42 µL/min/mg	190 µL/min/mg	120 µM (≈ 54.4 µg/mL)	O=C(NCc1ccc(CC(F)(F)F)cc1)C1c2ccccc2C(=O)N1CCc1ccccn1 (centres undefined)	–
< 10 µL/min/mg	33 µL/min/mg	32 µM (≈ 14 µg/mL)	O=C(NCc1ccc(OC(F)F)nc1)C1c2ccccc2C(=O)N1CCc1ccccn1 (centres undefined)	–
37 µL/min/mg	97 µL/min/mg	4 µM (≈ 1.94 µg/mL)	COc1cccc2c1C(C(=O)NCc1ccc(OC(F)(F)F)cc1)N(CCc1ccccn1)C2=O (centres undefined)	–
–	–	–	O=C(NCc1ccc(OC(F)(F)F)cc1)C1c2ccccc2C(=O)N1C1CCC(F)(F)CC1 (single isomer, unassigned)	pIC50 [15]: < 5.00
89 µL/min/mg	170 µL/min/mg	7 µM (≈ 3.73 µg/mL)	CC(C)(C)OC(=O)N1CCC(N2C(=O)c3ccccc3C2C(=O)NCc2ccc(OC(F)(F)F)cc2)CC1 (centres undefined)	–
36 µL/min/mg	42 µL/min/mg	2 µM (≈ 0.981 µg/mL)	O=C(NCc1ccc(OC(F)(F)F)cc1)C1c2cccc(O)c2C(=O)N1CCc1ncc(F)cn1 (centres undefined)	–
30 µL/min/mg	57 µL/min/mg	2 µM (≈ 0.983 µg/mL)	O=C(NCc1ccc(OC(F)(F)F)cc1)C1c2ccccc2C(=O)N1CC(F)(F)c1ccccn1 (centres undefined)	–
–	–	42 µM (≈ 19.7 µg/mL)	O=C(NCc1ccc(OCC(F)(F)F)cc1)C1c2ccccc2C(=O)N1CCc1ccccn1 (centres undefined)	–
–	–	–	CN(C)CCC=C1c2ccccc2CCc2ccccc21 [AMITRIPTYLINE]	pIC50 [15]: 4.92
< 10 µL/min/mg	49 µL/min/mg	200 µM (≈ 92.7 µg/mL)	O=C(NCc1ccc(OC(F)(F)F)cc1)C1c2ccccc2C(=O)N1CCN1CCOCC1 (centres undefined)	–
39 µL/min/mg	190 µL/min/mg	< 1 µM	O=C(NCc1ccc(OC(F)(F)F)cc1)C1c2ccccc2C(=O)N1CCOc1ccccn1 (centres undefined)	–
< 10 µL/min/mg	44 µL/min/mg	3 µM (≈ 1.43 µg/mL)	O=C(NCc1ccc(OC(F)(F)F)cc1)C1c2ccccc2C(=O)N1CCOCC(F)(F)F (centres undefined)	–
31 µL/min/mg	> 500 µL/min/mg	6 µM (≈ 2.82 µg/mL)	O=C(NCc1ccc(OC(F)(F)F)cc1)C1c2ccccc2C(=O)N1CCCc1ccccn1 (centres undefined)	–
< 10 µL/min/mg	53 µL/min/mg	25 µM (≈ 11.9 µg/mL)	O=C(NCc1ccc(OC(F)(F)F)cc1)C1c2ccccc2C(=O)N1CCc1ncc(F)cn1 (centres undefined)	fraction unbound [4]: 0.092; AUC [5]: 2.1 µM·h; AUC [6]: 1.4 µM·h; Cmax [8]: 800 nM; half-life [9]: 24 min; Vd [10]: 1.1 L/kg; half-life [11]: 138 min; Tmax [12]: 18 min; clearance [13]: 37 mL/min/kg; bioavailability [14]: 44%
